Measurements reported in ChEMBL document CHEMBL1944631, “Solid-state NMR analysis of calcium and d-mannose binding of BMY-28864, a water-soluble analogue of pradimicin A” (Bioorg Med Chem Lett, 2012).
In brackets after ≈: the same amount, converted by molar mass. Activity calls are given as the source filed them. The rule behind the calls is not given here.

Tests used:
[1] = Solubility of the compound in phosphate buffered saline at pH 7.4; assay type: physicochemical
[2] = Binding affinity to [13C6]-methyl alpha-D-mannopyranoside by 2-DDARR in presence of Ca2+ relative to TMS
[3] = Binding affinity to methyl alpha-D-mannopyranoside at -135 ppm by Solid-state CP/MAS 113Cd NMR spectroscopy
[4] = Binding affinity to methyl alpha-D-mannopyranoside at -129 ppm by Solid-state CP/MAS 113Cd NMR spectroscopy

CN[C@@H]1[C@H](O[C@@H]2OC[C@@H](O)[C@H](O)[C@H]2O)[C@@H](O)[C@H](O[C@H]2c3cc(C)c(C(=O)N[C@H](C)C(=O)O)c(O)c3-c3c(cc4c(c3O)C(=O)c3cc(OC)cc(O)c3C4=O)[C@@H]2O)O[C@@H]1C [PRADIMICIN A]
solubility [1]: 20 µg/mL (≈ 23.8 µM)
Activity [2]: Active
Activity [3]: Active

CN[C@@H]1[C@H](O[C@@H]2OC[C@@H](O)[C@H](O)[C@H]2O)[C@@H](O)[C@H](O[C@H]2c3cc(C)c(C(=O)N[C@H](CO)C(=O)O)c(O)c3-c3c(cc4c(c3O)C(=O)c3cc(OC)cc(O)c3C4=O)[C@@H]2O)O[C@@H]1C
solubility [1]: 260 µg/mL (≈ 303 µM)

COc1cc(O)c2c(c1)C(=O)c1c(cc3c(c1O)-c1c(cc(C)c(C(=O)N[C@H](CO)C(=O)O)c1O)[C@H](O[C@@H]1O[C@H](C)[C@H](N(C)C)[C@H](O[C@@H]4OC[C@@H](O)[C@H](O)[C@H]4O)[C@H]1O)[C@H]3O)C2=O
Activity [4]: Active
solubility [1]: > 20000 µg/mL
Activity [2]: Active
